Each block holds one compound with its values, some of them ahead of it. Activity calls are given as the source filed them. No cut-off for these calls is given here.
Assays:
[1] = molecular target: CDK1/Cyclin A (Homo sapiens) (UniProt P06493+P20248); assay: Inhibition of human CDK1/cyclin A at 18.6 nM by HotSpot assay relative to control; format: protein-complex assay
[2] = molecular target: T1, Serine/threonine-protein kinase 3 (Homo sapiens) (UniProt Q13188); assay: Inhibition of human STK3 at 18.6 nM by HotSpot assay relative to control
T1 sequence (whole entry): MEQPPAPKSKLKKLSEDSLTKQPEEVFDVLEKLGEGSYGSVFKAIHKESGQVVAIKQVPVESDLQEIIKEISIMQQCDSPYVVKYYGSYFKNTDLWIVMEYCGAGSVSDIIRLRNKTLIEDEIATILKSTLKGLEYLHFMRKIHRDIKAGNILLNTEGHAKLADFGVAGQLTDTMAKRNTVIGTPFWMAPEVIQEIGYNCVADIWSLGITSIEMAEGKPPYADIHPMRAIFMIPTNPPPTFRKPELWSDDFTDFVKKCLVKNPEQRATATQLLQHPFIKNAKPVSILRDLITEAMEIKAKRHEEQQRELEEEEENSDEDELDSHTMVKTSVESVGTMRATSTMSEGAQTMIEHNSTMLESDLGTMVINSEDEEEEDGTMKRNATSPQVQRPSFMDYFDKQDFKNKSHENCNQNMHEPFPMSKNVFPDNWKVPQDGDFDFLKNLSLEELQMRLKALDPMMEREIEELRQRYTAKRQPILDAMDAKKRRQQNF

[3] = molecular target: T2, 3-phosphoinositide-dependent protein kinase 1 (Homo sapiens) (UniProt O15530); assay: Inhibition of human PDPK1 at 18.6 nM by HotSpot assay relative to control
T2 sequence (whole entry): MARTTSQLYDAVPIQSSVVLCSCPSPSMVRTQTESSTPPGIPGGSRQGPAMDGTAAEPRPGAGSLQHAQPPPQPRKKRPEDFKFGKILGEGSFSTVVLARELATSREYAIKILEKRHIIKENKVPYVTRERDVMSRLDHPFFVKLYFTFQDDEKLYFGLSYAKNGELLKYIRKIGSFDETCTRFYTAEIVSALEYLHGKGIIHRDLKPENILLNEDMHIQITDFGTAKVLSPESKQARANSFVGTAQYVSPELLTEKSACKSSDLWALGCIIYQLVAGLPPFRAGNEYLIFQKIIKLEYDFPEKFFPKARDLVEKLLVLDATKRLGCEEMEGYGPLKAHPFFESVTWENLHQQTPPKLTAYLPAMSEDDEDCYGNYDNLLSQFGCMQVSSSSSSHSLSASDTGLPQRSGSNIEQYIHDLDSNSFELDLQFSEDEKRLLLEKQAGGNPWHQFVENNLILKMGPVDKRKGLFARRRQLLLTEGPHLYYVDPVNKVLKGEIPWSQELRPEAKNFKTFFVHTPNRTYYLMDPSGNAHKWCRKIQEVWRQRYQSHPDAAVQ

[4] = molecular target: cAMP-dependent protein kinase (PKA) (Homo sapiens) (UniProt P22694+P17612+P22612); assay: Inhibition of human PKA at 18.6 nM by HotSpot assay relative to control; format: protein assay
[5] = molecular target: Serine/threonine-protein kinase N1 (Homo sapiens) (UniProt Q16512); assay: Inhibition of human PRK1 at 18.6 nM by HotSpot assay relative to control
[6] = molecular target: T3, Serine/threonine-protein kinase TAO1 (Homo sapiens) (UniProt Q7L7X3); assay: Inhibition of human TAOK1 at 18.6 nM by HotSpot assay relative to control
T3 sequence (whole entry): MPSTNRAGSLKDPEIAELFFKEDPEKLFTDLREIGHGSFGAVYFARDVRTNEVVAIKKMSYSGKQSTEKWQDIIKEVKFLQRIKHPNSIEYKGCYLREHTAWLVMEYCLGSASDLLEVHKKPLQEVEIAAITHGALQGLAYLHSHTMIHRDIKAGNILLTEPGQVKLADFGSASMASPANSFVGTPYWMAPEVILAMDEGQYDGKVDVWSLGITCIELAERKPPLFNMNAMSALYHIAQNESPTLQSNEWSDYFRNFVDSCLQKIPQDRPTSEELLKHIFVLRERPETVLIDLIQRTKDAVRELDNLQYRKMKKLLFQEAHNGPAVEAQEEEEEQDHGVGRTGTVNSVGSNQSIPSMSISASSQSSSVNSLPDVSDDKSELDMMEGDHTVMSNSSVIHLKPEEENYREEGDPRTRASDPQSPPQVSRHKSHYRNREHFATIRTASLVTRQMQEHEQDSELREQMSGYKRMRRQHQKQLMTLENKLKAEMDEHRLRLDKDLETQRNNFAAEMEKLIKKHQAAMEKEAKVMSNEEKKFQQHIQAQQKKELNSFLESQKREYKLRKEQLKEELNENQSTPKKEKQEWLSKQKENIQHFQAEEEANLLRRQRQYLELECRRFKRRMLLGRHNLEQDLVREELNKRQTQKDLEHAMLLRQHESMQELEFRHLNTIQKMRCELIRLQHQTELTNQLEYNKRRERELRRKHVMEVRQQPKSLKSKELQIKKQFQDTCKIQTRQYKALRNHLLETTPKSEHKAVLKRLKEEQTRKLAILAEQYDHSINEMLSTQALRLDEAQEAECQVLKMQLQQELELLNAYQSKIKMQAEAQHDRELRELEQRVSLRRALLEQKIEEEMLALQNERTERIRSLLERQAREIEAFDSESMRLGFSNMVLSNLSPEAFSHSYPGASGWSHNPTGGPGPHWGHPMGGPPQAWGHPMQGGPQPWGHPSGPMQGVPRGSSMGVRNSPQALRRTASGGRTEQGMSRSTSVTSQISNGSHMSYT

[7] = molecular target: Serine/threonine-protein kinase OSR1 (Homo sapiens) (UniProt O95747); assay: Inhibition of human OXSR1 at 18.6 nM by HotSpot assay relative to control
Sequence of Serine/threonine-protein kinase OSR1 (Homo sapiens) (O95747 whole entry, looked up): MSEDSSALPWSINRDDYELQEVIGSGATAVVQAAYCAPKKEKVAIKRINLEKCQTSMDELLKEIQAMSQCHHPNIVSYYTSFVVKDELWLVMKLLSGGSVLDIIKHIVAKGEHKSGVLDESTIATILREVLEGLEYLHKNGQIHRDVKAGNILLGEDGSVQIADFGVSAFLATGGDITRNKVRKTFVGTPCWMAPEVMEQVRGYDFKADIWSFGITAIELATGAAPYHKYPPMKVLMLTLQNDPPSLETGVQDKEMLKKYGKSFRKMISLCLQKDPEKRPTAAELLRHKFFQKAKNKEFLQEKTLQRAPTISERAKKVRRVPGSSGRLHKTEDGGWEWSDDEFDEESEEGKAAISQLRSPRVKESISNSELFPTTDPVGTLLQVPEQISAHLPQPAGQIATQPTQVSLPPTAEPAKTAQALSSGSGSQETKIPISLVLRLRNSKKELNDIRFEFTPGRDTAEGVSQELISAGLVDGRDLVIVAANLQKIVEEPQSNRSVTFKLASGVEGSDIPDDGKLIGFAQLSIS

[8] = molecular target: Receptor tyrosine-protein kinase erbB-2 (Homo sapiens) (UniProt P04626); assay: Inhibition of human ERBB2 at 1.82 nM by HotSpot assay relative to control
Sequence of Receptor tyrosine-protein kinase erbB-2 (Homo sapiens) (P04626 whole entry): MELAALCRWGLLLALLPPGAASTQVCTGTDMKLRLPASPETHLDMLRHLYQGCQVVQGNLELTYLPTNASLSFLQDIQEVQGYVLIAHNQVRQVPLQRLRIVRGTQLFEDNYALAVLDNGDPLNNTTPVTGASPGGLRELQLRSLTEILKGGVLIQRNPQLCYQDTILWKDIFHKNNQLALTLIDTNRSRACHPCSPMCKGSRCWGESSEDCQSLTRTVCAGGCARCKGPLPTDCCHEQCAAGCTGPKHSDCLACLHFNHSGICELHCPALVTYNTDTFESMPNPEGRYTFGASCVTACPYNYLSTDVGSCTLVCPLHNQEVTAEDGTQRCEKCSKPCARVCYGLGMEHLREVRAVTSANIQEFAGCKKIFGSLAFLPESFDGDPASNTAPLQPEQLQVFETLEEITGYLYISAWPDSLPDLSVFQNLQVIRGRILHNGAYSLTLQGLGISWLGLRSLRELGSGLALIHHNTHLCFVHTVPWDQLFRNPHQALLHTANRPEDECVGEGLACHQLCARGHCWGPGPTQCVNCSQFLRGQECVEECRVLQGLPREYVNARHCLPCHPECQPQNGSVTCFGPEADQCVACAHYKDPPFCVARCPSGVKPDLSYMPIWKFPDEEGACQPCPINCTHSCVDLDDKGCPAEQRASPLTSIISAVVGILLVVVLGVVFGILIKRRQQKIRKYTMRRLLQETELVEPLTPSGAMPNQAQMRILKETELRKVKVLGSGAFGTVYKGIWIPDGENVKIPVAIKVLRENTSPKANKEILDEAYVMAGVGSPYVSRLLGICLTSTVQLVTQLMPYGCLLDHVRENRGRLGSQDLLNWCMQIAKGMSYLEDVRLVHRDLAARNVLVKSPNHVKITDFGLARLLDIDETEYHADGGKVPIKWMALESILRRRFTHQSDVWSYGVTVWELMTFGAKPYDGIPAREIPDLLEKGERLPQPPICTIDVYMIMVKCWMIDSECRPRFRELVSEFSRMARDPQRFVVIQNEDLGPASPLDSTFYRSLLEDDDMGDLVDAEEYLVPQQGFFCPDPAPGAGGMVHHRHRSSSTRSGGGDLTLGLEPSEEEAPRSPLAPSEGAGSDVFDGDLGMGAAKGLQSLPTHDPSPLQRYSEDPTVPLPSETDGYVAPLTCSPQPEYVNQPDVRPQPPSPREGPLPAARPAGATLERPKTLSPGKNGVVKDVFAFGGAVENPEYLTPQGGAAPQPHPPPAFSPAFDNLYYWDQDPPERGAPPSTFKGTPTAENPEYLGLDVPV

[9] = molecular target: Glycogen synthase kinase-3 alpha (Homo sapiens) (UniProt P49840); assay: Inhibition of human GSK3a at 1.82 nM by HotSpot assay relative to control
Sequence of Glycogen synthase kinase-3 alpha (Homo sapiens) (P49840 2-483 limits assumed): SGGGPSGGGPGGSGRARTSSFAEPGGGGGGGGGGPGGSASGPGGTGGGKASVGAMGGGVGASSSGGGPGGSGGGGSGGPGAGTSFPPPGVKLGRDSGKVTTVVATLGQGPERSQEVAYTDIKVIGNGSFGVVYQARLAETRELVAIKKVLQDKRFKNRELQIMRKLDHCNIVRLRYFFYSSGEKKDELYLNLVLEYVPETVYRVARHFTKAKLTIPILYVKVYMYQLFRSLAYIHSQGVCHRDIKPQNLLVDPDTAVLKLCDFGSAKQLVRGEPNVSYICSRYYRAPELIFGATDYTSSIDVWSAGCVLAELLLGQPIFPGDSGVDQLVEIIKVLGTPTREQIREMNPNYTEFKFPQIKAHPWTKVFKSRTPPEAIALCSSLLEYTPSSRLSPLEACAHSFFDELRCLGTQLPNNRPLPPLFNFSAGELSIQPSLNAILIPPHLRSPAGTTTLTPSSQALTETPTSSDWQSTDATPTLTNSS

[10] = molecular target: Tyrosine-protein kinase Lyn (Homo sapiens) (UniProt P07948); assay: Inhibition of human LYN at 1.82 nM by HotSpot assay relative to control
[11] = molecular target: MAP kinase-interacting serine/threonine-protein kinase 1 (Homo sapiens) (UniProt Q9BUB5); assay: Inhibition of human MNK1 at 1.82 nM by HotSpot assay relative to control
Sequence of MAP kinase-interacting serine/threonine-protein kinase 1 (Homo sapiens) (Q9BUB5 whole entry, looked up): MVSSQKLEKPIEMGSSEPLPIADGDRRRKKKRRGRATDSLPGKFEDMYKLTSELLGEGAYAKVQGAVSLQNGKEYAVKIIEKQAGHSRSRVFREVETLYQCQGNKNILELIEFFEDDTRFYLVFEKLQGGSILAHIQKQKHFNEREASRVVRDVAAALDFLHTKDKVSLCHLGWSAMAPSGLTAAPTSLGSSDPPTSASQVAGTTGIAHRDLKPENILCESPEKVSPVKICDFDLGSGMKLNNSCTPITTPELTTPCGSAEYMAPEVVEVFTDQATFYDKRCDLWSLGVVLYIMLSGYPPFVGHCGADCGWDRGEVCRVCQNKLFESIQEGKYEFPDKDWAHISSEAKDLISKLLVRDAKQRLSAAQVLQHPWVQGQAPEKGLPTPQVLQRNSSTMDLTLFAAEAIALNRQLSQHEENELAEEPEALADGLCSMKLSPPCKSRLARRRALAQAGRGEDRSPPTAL

[12] = molecular target: Insulin receptor (Homo sapiens) (UniProt P06213); assay: Inhibition of wild-type human Insulin receptor transfected in CHO-K1 cell lysate assessed as decrease in tyrosine phosphorylation at 10 uM for 30 mins on ice followed by insulin stimulation for 10 mins by Western blot analysis; format: subcellular; conditions: time 40.0 min
Sequence of Insulin receptor (Homo sapiens) (P06213 28-758 limits assumed): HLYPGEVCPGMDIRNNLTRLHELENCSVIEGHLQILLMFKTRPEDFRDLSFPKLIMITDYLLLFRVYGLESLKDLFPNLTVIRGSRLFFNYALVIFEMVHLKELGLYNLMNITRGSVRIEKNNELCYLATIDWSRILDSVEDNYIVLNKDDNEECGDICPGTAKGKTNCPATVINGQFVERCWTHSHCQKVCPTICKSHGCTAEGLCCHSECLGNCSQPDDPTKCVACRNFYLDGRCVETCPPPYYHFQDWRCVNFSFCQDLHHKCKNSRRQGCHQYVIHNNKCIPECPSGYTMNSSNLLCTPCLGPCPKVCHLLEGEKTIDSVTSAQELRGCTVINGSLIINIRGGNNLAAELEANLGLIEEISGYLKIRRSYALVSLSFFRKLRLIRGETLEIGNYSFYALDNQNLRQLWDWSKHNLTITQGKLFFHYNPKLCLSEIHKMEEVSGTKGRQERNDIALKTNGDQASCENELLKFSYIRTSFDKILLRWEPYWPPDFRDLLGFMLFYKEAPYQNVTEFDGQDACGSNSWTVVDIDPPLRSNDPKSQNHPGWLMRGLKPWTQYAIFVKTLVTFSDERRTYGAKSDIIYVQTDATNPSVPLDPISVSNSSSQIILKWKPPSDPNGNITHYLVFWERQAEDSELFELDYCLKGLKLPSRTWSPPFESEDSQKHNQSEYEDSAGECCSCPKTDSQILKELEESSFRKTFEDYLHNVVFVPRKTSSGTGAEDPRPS
Sequence of Insulin receptor (Homo sapiens) (P06213 763-1382 limits assumed): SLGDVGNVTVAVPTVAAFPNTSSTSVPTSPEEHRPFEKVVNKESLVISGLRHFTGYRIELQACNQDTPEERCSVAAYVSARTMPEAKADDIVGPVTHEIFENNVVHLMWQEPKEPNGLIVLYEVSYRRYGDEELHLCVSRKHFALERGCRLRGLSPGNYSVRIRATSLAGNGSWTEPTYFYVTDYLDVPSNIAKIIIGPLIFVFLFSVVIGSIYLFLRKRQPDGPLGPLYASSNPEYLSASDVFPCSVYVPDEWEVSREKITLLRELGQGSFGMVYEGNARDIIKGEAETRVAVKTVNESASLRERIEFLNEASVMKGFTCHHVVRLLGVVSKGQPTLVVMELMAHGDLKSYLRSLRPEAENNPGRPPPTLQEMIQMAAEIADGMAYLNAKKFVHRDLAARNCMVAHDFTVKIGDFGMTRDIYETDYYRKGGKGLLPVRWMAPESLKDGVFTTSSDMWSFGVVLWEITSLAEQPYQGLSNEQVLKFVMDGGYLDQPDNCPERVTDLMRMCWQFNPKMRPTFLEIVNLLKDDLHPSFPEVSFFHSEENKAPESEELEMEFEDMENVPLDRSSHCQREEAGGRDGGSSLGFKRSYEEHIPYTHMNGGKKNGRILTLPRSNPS

Sequence of CDK1/Cyclin A (Homo sapiens) (P06493 whole entry, looked up): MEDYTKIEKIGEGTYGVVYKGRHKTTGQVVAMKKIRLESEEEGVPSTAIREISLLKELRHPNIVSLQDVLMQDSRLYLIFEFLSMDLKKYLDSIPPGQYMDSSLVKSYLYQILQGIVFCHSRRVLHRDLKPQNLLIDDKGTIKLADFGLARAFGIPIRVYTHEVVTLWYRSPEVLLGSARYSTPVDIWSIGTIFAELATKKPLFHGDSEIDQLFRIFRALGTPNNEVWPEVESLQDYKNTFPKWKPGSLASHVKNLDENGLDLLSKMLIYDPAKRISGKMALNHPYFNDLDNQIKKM
Sequence of CDK1/Cyclin A (Homo sapiens) (P20248 whole entry, looked up): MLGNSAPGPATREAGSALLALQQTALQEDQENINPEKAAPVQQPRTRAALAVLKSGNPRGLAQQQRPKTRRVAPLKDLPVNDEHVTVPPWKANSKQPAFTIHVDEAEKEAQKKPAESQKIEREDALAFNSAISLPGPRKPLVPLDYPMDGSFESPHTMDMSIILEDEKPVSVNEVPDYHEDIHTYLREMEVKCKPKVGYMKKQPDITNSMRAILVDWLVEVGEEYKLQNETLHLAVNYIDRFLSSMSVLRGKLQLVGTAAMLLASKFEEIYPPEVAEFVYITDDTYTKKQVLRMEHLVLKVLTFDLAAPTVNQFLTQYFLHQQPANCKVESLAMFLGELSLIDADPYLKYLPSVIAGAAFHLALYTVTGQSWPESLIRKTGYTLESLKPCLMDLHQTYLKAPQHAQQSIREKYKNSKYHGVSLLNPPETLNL

- inhibition [1]: 1.16%
- inhibition [2]: -2.45%
- inhibition [3]: -0.41%
- inhibition [4]: -8.62%
- inhibition [5]: -7.69%
- inhibition [6]: 0.77%
- inhibition [7]: -6.49%
Structure (SMILES): C[C@]1(O)C[C@@H](c2nc(-c3ccc4ccc(-c5ccccc5)nc4c3)c3c(N)nccn32)C1

- inhibition [8]: 5.5%
- inhibition [9]: 4.1%
- inhibition [10]: 3.66%
- inhibition [11]: 5.01%
Structure (SMILES): C[C@@]1(C(=O)Nc2ccc(F)nc2)CCCN1c1nc(Nc2cc(C3CC3)n[nH]2)c2cccn2n1

Structure (SMILES): Oc1n[nH]c2nnc(-c3c(-c4ccccc4)nn4ccccc34)cc12
- inhibition [12]: Active

— ChEMBL document CHEMBL5653615 (J Biol Chem, 2013)
